Data: ChEMBL document CHEMBL5537125, “Discovery of C-3 isoxazole substituted thiochromone S,S-dioxide derivatives as potent and selective inhibitors for monoamine oxidase B (MAO-B)” (Eur J Med Chem, 2024)
Blank lines part the entries; values can stand above or below the compound they belong to. Active and inactive are the calls of the source. No cut-off for these calls is given here.

How the values were obtained:
[1] = n-Octanol/water partition coefficient, logP of the compound at pH 7.4 by HPLC analysis; assay type: physicochemical
[2] = target: T1, Amine oxidase [flavin-containing] B (Homo sapiens, UniProt P27338); test: Inhibition of human recombinant MAO-B using tyramine as substrate incubated for 20 mins by fluorometric assay
T1 sequence (P27338 whole entry): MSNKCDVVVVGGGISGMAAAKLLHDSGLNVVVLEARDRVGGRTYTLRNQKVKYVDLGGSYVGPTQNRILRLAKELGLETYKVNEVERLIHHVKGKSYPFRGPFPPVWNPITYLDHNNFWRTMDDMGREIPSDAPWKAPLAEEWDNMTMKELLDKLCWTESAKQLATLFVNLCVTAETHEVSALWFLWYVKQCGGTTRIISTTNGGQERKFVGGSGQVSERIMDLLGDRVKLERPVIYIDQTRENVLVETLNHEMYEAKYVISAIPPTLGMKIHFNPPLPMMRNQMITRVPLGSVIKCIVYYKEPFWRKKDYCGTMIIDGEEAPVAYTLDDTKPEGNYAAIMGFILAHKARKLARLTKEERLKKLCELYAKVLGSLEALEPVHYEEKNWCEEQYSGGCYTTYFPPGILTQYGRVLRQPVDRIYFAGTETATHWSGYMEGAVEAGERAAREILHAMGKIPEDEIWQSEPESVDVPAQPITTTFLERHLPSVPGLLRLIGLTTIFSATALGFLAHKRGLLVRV

[3] = Solubility of compound in DMSO; assay type: physicochemical
[4] = Solubility of compound in phosphate buffer; assay type: physicochemical
Homo sapiens = organism: Homo sapiens; test: Selectivity index, ratio of IC50 for human recombinant MAO-A to IC50 for human recombinant MAO-B
[5] = target: T2, Amine oxidase [flavin-containing] A (Homo sapiens, UniProt P21397); test: Inhibition of human recombinant MAO-A using tyramine as substrate incubated for 20 mins by fluorometric assay
T2 sequence (P21397 whole entry): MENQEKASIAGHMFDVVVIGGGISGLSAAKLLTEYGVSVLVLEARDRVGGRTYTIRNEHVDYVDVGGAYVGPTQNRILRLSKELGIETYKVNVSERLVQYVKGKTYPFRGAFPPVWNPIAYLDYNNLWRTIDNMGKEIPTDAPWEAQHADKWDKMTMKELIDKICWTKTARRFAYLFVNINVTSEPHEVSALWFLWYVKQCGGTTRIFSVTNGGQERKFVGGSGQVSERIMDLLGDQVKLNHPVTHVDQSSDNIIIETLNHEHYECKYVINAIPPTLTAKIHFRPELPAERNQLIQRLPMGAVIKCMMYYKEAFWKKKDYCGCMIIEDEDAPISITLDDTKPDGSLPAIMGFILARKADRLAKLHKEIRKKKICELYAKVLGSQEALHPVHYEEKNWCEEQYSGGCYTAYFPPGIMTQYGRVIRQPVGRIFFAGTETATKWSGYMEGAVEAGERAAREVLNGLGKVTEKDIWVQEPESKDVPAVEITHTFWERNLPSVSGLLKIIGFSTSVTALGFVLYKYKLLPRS

[6] = target: T2, Amine oxidase [flavin-containing] A; test: Inhibition of human recombinant MAO-A using tyramine as substrate at 10 uM incubated for 20 mins by fluorometric assay relative to control
SH-SY5Y [7] = test: Cytotoxicity against differentiated human SH-SY5Y cells assessed as reduction in cell viability by measuring MTT reduction at 4 uM incubated for 24 hrs by MTT assay relative to control; assay type: toxicity, cell-based
[8] = Cytotoxicity against differentiated human SH-SY5Y cells assessed as cell proliferation at 4 uM incubated for 24 hrs by MTT assay relative to control; assay type: toxicity, cell-based; details: read-out: Activity
HCT-116 = test: Antiproliferative activity against human HCT-116 cells assessed as reduction in cell viability incubated for 24 hrs by MTT assay; assay type: functional, cell-based; details: HCT-116, 24 h
VSMC [9] = test: Cytotoxicity against differentiated human VSMC cells assessed as reduction in cell viability at 0.5 to 4 uM incubated for 24 hrs by MTT assay; assay type: toxicity, cell-based; details: dose 0.5-4 µM
[10] = Cytotoxicity against differentiated human SH-SY5Y cells assessed as cell proliferation at 0.5 uM incubated for 24 hrs by MTT assay relative to control; assay type: toxicity, cell-based; details: read-out: Activity
HepG2 [11] = test: Antiproliferative activity against human HepG2 cells assessed as reduction in cell viability incubated for 24 hrs by MTT assay; assay type: functional, cell-based; details: HepG2, 24 h
MCF7 = test: Antiproliferative activity against human MCF7 cells assessed as reduction in cell viability incubated for 24 hrs by MTT assay; assay type: functional, cell-based; details: MCF7, 24 h
MGC-803 [12] = test: Antiproliferative activity against human MGC-803 cells assessed as reduction in cell viability incubated for 24 hrs by MTT assay; assay type: functional, cell-based; details: MGC-803, 24 h
VSMC [13] = test: Cytotoxicity against human VSMC cells assessed as reduction in cell viability at 0.5 uM incubated for 24 hrs by MTT assay relative to control; assay type: toxicity, cell-based
SH-SY5Y [14] = test: Induction of ROS production in human SH-SY5Y cells assessed as increase in oxidative damage at 2 to 4 uM incubated for 24 hrs by DCFH-DA staining based fluorescence microscopic analysis; assay type: functional, cell-based; details: dose 2-4 µM
MGC-803 [15] = test: Antiproliferative activity against human MGC-803 cells assessed as reduction in cell viability at 0.5 to 128 uM incubated for 24 hrs by MTT assay; assay type: functional, cell-based; details: dose 0.5-128 µM
[16] = Selectivity index, ratio of IC50 for MAO-A (unknown origin) to IC50 for human recombinant MAO-B
[17] = target: T1, Amine oxidase [flavin-containing] B; test: Inhibition of human MAO-B
HepG2 [18] = test: Antiproliferative activity against human HepG2 cells assessed as reduction in cell viability at 0.5 to 128 uM incubated for 24 hrs by MTT assay; assay type: functional, cell-based; details: dose 0.5-128 µM

logD [1]: 3.2
IC50 [2]: 0.0622 µM
Structure (SMILES): Cc1ccc(-c2cc(-c3csc4ccccc4c3=O)on2)cc1

logD [1]: 2.69
IC50 [2]: 0.137 µM
Structure (SMILES): Cc1ccccc1-c1cc(C2=CS(=O)(=O)c3ccccc3C2=O)on1

solubility [3]: Insoluble
solubility [4]: Insoluble
Structure (SMILES): COc1ccc(-c2cc(-c3csc4ccccc4c3=O)on2)cc1

logD [1]: 3.71
Ratio IC50 (Homo sapiens): 4580
IC50 [2]: 0.0351 µM
IC50 [5]: 161 µM
Structure (SMILES): O=c1c(-c2cc(-c3cccc(C(F)(F)F)c3)no2)csc2ccccc12

inhibition at 10 µM [6]: 3.8%
logD [1]: 2.63
IC50 (HCT-116): 52.1 µM
IC50 (HepG2 [11]): 99.3 µM
IC50 (MCF7): 16 µM
IC50 (MGC-803 [12]): 37.7 µM
IC50 [2]: 0.0023 µM
Structure (SMILES): O=C1C(c2cc(-c3ccccc3C(F)(F)F)no2)=CS(=O)(=O)c2ccccc21
Activity (SH-SY5Y [7]): < 90%
viability at 24 h, 4 µM [8]: 119%
Activity (VSMC [9]): Non-Toxic
viability at 24 h, 0.5 µM [10]: 108%

inhibition at 10 µM [6]: 1%
logD [1]: 2.39
IC50 (HCT-116): 47 µM
IC50 (HepG2 [11]): 43.3 µM
IC50 (MCF7): 4.21 µM
IC50 (MGC-803 [12]): 43 µM
IC50 [2]: 0.0051 µM
Structure (SMILES): COc1cccc(-c2cc(C3=CS(=O)(=O)c4ccccc4C3=O)on2)c1
Activity (VSMC [13]): 111%
Activity (VSMC [9]): Non-Toxic
Activity (SH-SY5Y [14]): inactive

logD [1]: 3.72
IC50 [2]: 1.23 µM
Structure (SMILES): O=c1c(-c2cc(-c3ccccc3)no2)csc2ccccc12

logD [1]: 1.82
IC50 (HCT-116): 53.4 µM
IC50 (HepG2 [11]): 55.9 µM
IC50 (MCF7): 3.77 µM
IC50 [2]: 0.0034 µM
IC50 [5]: 38.3 µM
Structure (SMILES): O=C1C(c2cc(-c3ccc(Cl)cc3)no2)=CS(=O)(=O)c2ccccc21
Activity (SH-SY5Y [7]): < 90%
Activity (VSMC [9]): Non-Toxic
Activity (MGC-803 [15]): inactive

solubility [3]: Insoluble
solubility [4]: Insoluble
Structure (SMILES): O=c1c(-c2cc(-c3ccc(Cl)cc3)no2)csc2ccccc12

Ratio IC50 (Homo sapiens): > 8350
Structure (SMILES): Cc1ccc(C2=NOC(c3ccc(Cl)c(Cl)c3)C2)cc1 (stereo unspecified)

logD [1]: 2.43
IC50 [2]: 0.149 µM
Structure (SMILES): O=C1C(c2cc(-c3ccc(F)cc3)no2)=CS(=O)(=O)c2ccccc21

solubility [3]: Insoluble
solubility [4]: Insoluble
Structure (SMILES): COc1cccc(-c2cc(-c3csc4ccccc4c3=O)on2)c1

logD [1]: 2.46
IC50 [2]: 0.44 µM
Structure (SMILES): O=C1C(c2cc(-c3cccc(F)c3)no2)=CS(=O)(=O)c2ccccc21

solubility [3]: Insoluble
solubility [4]: Insoluble
Structure (SMILES): O=c1c(-c2cc(-c3ccc(F)cc3)no2)csc2ccccc12

logD [1]: 2.55
Ratio IC50 (Homo sapiens): 7580
IC50 [2]: 0.0113 µM
IC50 [5]: 85.4 µM
Structure (SMILES): O=c1c(-c2cc(-c3ccc(C(F)(F)F)cc3)no2)csc2ccccc12

Continued, compound first:

Structure (SMILES): Cc1ccc(-c2cc(C3=CS(=O)(=O)c4ccccc4C3=O)on2)cc1
logD [1]: 2.77
IC50 [2]: 0.0268 µM

Structure (SMILES): O=C1C(c2cc(-c3cccc(Cl)c3)no2)=CS(=O)(=O)c2ccccc21
logD [1]: 4.17
IC50 [2]: 0.0226 µM

Structure (SMILES): O=c1c(-c2cc(-c3cccc(F)c3)no2)csc2ccccc12
solubility [3]: Insoluble
solubility [4]: Insoluble

Structure (SMILES): Cc1ccccc1-c1cc(-c2csc3ccccc3c2=O)on1
logD [1]: 3.99
IC50 [2]: 0.109 µM

Structure (SMILES): O=c1c(-c2cc(-c3cccc(Cl)c3)no2)csc2ccccc12
solubility [3]: Insoluble
solubility [4]: Insoluble

Structure (SMILES): COc1ccc(-c2cc(-c3csc4ccccc4c3=O)[nH]n2)cc1
logD [1]: 3.43
IC50 [2]: 0.0185 µM

Structure (SMILES): O=C1C(c2cc(-c3ccccc3)no2)=CS(=O)(=O)c2ccccc21
logD [1]: 3.26
IC50 [2]: 0.896 µM

Structure (SMILES): Cc1cccc(-c2cc(-c3csc4ccccc4c3=O)on2)c1
logD [1]: 3.44
IC50 [2]: 0.53 µM

Structure (SMILES): CC(=O)c1ccc(OCc2ccccc2)cc1O
Ratio IC50 [16]: 1190
IC50 [17]: 0.007 µM

Structure (SMILES): O=C1C(c2cc(-c3ccc(C(F)(F)F)cc3)no2)=CS(=O)(=O)c2ccccc21
inhibition at 10 µM [6]: 2.6%
logD [1]: 2.37
IC50 [2]: 0.0318 µM

Structure (SMILES): O=C1C(c2cc(-c3cccc(C(F)(F)F)c3)no2)=CS(=O)(=O)c2ccccc21
inhibition at 10 µM [6]: 10%
Activity (VSMC [13]): 113%
logD [1]: 3.39
Activity (SH-SY5Y [7]): < 90%
IC50 (HCT-116): 21.4 µM
Activity (VSMC [9]): Non-Toxic
IC50 (HepG2 [11]): 83.2 µM
IC50 (MCF7): 5.82 µM
IC50 (MGC-803 [12]): 39.6 µM
IC50 [2]: 0.0019 µM
Activity (SH-SY5Y [14]): inactive

Structure (SMILES): Cc1cccc(-c2cc(C3=CS(=O)(=O)c4ccccc4C3=O)on2)c1
logD [1]: 3.23
IC50 [2]: 0.0982 µM

Structure (SMILES): COc1ccc(-c2cc(C3=CS(=O)(=O)c4ccccc4C3=O)on2)cc1
logD [1]: 2.62
Activity (SH-SY5Y [7]): < 90%
viability at 24 h, 4 µM [8]: 120%
IC50 (HCT-116): 78.1 µM
Activity (VSMC [9]): Non-Toxic
viability at 24 h, 0.5 µM [10]: 105%
IC50 (HepG2 [11]): 63.1 µM
IC50 (MCF7): 6.02 µM
IC50 [2]: 0.0034 µM
IC50 [5]: 64.4 µM
Activity (MGC-803 [15]): inactive

Structure (SMILES): O=c1c(-c2cc(-c3ccccc3C(F)(F)F)no2)csc2ccccc12
logD [1]: 4.37
Activity (SH-SY5Y [7]): < 90%
Activity (HepG2 [18]): inactive
viability at 24 h, 4 µM [8]: 121%
Activity (VSMC [9]): Non-Toxic
IC50 (MCF7): 37.9 µM
IC50 [2]: 0.002 µM
IC50 [5]: 21.2 µM
Activity (MGC-803 [15]): inactive
